# Tested on: human adult primary fibroblast cells
# Assay: Telomere length by Telomere Analysis Technology (HT Q-FISH) and telomere shortening rate
# Assay type: cell-based
# Description: A high-throughput (HT) Q-FISH technique was used. This method is based on a quantitative fluorescence in-situ hybridization method modified for cells in interphase2. In brief, telomeres are hybridized with a fluorescent Peptide Nucleic Acid probe (PNA) that recognizes three telomere repeats. The images of the nuclei and telomeres are captured by a high-content screen system. The intensity of the fluorescent signal from the telomeric PNA probes that hybridize to a given telomere is proportional to the length of that telomere. The intensities of fluorescence are translated to base pairs through a standard regression curve which is generated using control cell lines with known telomere length.
# Sample Preparation and HT Q-FISH: On processing day, the samples and control cell lines frozen in liquid nitrogen are thawed at 37° C. and cell counts and cellular viability are determined. Aliquots with viability lower than 60% are considered below our QC standards and are not further analyzed. Cells are seeded in clear bottom black-walled 384-well plates at 15,000 cells per well in 5 replicates for each sample and 8 replicates for each control cell line.
# Cells are fixed with methanol/acetic acid (3/1, vol/vol). Once these cells have fixed onto the plate, they are treated with pepsin to digest the cytoplasm and the nuclei are processed for in situ hybridization with the PNA probe. After several washing steps following standard DAPI incubation for DNA staining, the wells are filled up with mounting medium and the plate is stored overnight at 4° C.
# HT Microscopy: Quantitative image acquisition and analysis is performed on a High Content Screening Opera System. Images are captured, using a 40×0.95 NA water immersion objective. UV and 488 nm excitation wavelengths are used to detect the DAPI and A488 signals respectively. With constant exposure settings, 15 independent images are captured at different positions for each well. Next, the nuclei images are used to define the region of interest for each cell, measuring telomere fluorescence intensity of the A488 image in all of them. The results of intensity for each foci are exported to the Columbus 2.4 software. Telomere length distribution and median telomere length are calculated with Life Length's proprietary program.
# Median telomere length, 20th percentile telomere length, percentage of short telomeres and the coefficients of variation for each set of samples. The percentage of short telomeres is defined as the percentage of those below 3 Kbp (<3 Kbp). As mentioned earlier, measurements in five replicates per sample were performed.
# For TAT analysis, data were grouped by condition (Ctrl, H2O2, LUT10, LUT5, LUT1, LUT10+H2O2, LUT5+H2O2, LUT1+H2O2) and time point of treatment (0, 4, and 8 weeks).
# Due to the fact that DNA replication during the cell cycle causes of telomere shortening, the telomere length measurements performed were normalized by the total number of population doubling (cell replication) in each condition and week.
# Telomere shortening rate was analysed, Median of telomere length (initial-final)/Population Doubling, at the defined time points and treatments, FIG. 8.
# Graph of telomere length vs Population doubling at different treatments. Slope of regression line in each condition, represents the telomere shortening rate. Y=aX+b; a=slope andbb=y intercept, FIG. 9.
# [1] = Lutein 1 μg/ml + 10 μM H2O2, week 4 (P4)
# [2] = Lutein 1 μg/ml + 10 μM H2O2, week 8 (P8)
# [3] = Lutein 1 μg/ml, standard culture, week 4 (P4)
# [4] = Lutein 1 μg/ml, standard culture, week 8 (P8)
# [5] = Lutein 5 μg/ml + 10 μM H2O2, week 4 (P4)
# [6] = Lutein 5 μg/ml + 10 μM H2O2, week 8 (P8)
# [7] = Lutein 5 μg/ml, standard culture, week 4 (P4)
# [8] = Lutein 5 μg/ml, standard culture, week 8 (P8)
# [9] = Lutein 10 μg/ml + 10 μM H2O2, week 4 (P4)
# [10] = Lutein 10 μg/ml + 10 μM H2O2, week 8 (P8)
# [11] = Lutein 10 μg/ml, standard culture, week 4 (P4)
# [12] = Lutein 10 μg/ml, standard culture, week 8 (P8)
compound,measurement,setting,value
CC1=C[C@H](O)CC(C)(C)[C@H]1/C=C/C(C)=C/C=C/C(C)=C/C=C/C=C(C)/C=C/C=C(C)/C=C/C1=C(C)C[C@@H](O)CC1(C)C [Lutein],Telomere shortening rate versus control,"Lutein 1 μg/ml (LUT1), standard conditions, 8 weeks",significant increase
same,Median Telomere Length (Table 7A),"Lutein 1 μg/ml + 10 μM H2O2, week 4",5980 bp
same,"20th Percentile Length (telomere, TAT)",[1],3381 base pairs
same,"Median Length (telomere, TAT)",[1],5997 base pairs
same,Telomere shortening rate (Median of telomere length (initial-final)/Population Doubling),[1],111 bp/PD
same,Telomeres <3 Kbp (percentage of short telomeres),[1],16.72%
same,Median Telomere Length (Table 7A),"Lutein 1 μg/ml + 10 μM H2O2, week 8",6045 bp
same,"20th Percentile Length (telomere, TAT)",[2],2848 base pairs
same,"Median Length (telomere, TAT)",[2],6037 base pairs
same,Telomere shortening rate (Median of telomere length (initial-final)/Population Doubling),[2],63 bp/PD
same,Telomeres <3 Kbp (percentage of short telomeres),[2],21.14%
same,"Slope (Telomere Shortening Rate) of regression line, telomere length vs Population doubling","Lutein 1 μg/ml + 10 μM H2O2, weeks 0-8",y = −66.365x + 7187.3
same,Median Telomere Length (Table 7A),"Lutein 1 μg/ml, standard culture, week 4",5984 bp
same,"20th Percentile Length (telomere, TAT)",[3],3351 base pairs
same,"Median Length (telomere, TAT)",[3],5977 base pairs
same,Telomere shortening rate (Median of telomere length (initial-final)/Population Doubling),[3],100 bp/PD
same,Telomeres <3 Kbp (percentage of short telomeres),[3],16.87%
same,Median Telomere Length (Table 7A),"Lutein 1 μg/ml, standard culture, week 8",6071 bp
same,"20th Percentile Length (telomere, TAT)",[4],2848 base pairs
same,"Median Length (telomere, TAT)",[4],6077 base pairs
same,Telomere shortening rate (Median of telomere length (initial-final)/Population Doubling),[4],53 bp/PD
same,Telomeres <3 Kbp (percentage of short telomeres),[4],21.29%
same,"Slope (Telomere Shortening Rate) of regression line, telomere length vs Population doubling","Lutein 1 μg/ml, standard culture, weeks 0-8",y = −55.261x + 7163.8
same,Median Telomere Length (Table 7A),"Lutein 5 μg/ml + 10 μM H2O2, week 4",6085 bp
same,"20th Percentile Length (telomere, TAT)",[5],3351 base pairs
same,"Median Length (telomere, TAT)",[5],6077 base pairs
same,Telomere shortening rate (Median of telomere length (initial-final)/Population Doubling),[5],93 bp/PD
same,Telomeres <3 Kbp (percentage of short telomeres),[5],16.97%
same,Median Telomere Length (Table 7A),"Lutein 5 μg/ml + 10 μM H2O2, week 8",5980 bp
same,"20th Percentile Length (telomere, TAT)",[6],2977 base pairs
same,"Median Length (telomere, TAT)",[6],5977 base pairs
same,Telomere shortening rate (Median of telomere length (initial-final)/Population Doubling),[6],59 bp/PD
same,Telomeres <3 Kbp (percentage of short telomeres),[6],20.09%
same,"Slope (Telomere Shortening Rate) of regression line, telomere length vs Population doubling","Lutein 5 μg/ml + 10 μM H2O2, weeks 0-8",y = −61.587x + 7222
same,Median Telomere Length (Table 7A),"Lutein 5 μg/ml, standard culture, week 4",6340 bp
same,"20th Percentile Length (telomere, TAT)",[7],3104 base pairs
same,"Median Length (telomere, TAT)",[7],6349 base pairs
same,Telomere shortening rate (Median of telomere length (initial-final)/Population Doubling),[7],80 bp/PD
same,Telomeres <3 Kbp (percentage of short telomeres),[7],18.98%
same,Median Telomere Length (Table 7A),"Lutein 5 μg/ml, standard culture, week 8",6177 bp
same,"20th Percentile Length (telomere, TAT)",[8],2945 base pairs
same,"Median Length (telomere, TAT)",[8],6037 base pairs
same,Telomere shortening rate (Median of telomere length (initial-final)/Population Doubling),[8],55 bp/PD
same,Telomeres <3 Kbp (percentage of short telomeres),[8],20.51%
same,"Slope (Telomere Shortening Rate) of regression line, telomere length vs Population doubling","Lutein 5 μg/ml, standard culture, weeks 0-8",y = −56.796x + 7261.1
same,Median Telomere Length (Table 7A),"Lutein 10 μg/ml + 10 μM H2O2, week 4",5804 bp
same,"20th Percentile Length (telomere, TAT)",[9],3073 base pairs
same,"Median Length (telomere, TAT)",[9],5772 base pairs
same,Telomere shortening rate (Median of telomere length (initial-final)/Population Doubling),[9],118 bp/PD
same,Telomeres <3 Kbp (percentage of short telomeres),[9],19.10%
same,Median Telomere Length (Table 7A),"Lutein 10 μg/ml + 10 μM H2O2, week 8",5972 bp
same,"20th Percentile Length (telomere, TAT)",[10],2977 base pairs
same,"Median Length (telomere, TAT)",[10],5977 base pairs
same,Telomere shortening rate (Median of telomere length (initial-final)/Population Doubling),[10],66 bp/PD
same,Telomeres <3 Kbp (percentage of short telomeres),[10],20.09%
same,"Slope (Telomere Shortening Rate) of regression line, telomere length vs Population doubling","Lutein 10 μg/ml + 10 μM H2O2, weeks 0-8",y = −71.479x + 7181.9
same,Median Telomere Length (Table 7A),"Lutein 10 μg/ml, standard culture, week 4",6272 bp
same,"20th Percentile Length (telomere, TAT)",[11],3198 base pairs
same,"Median Length (telomere, TAT)",[11],6330 base pairs
same,Telomere shortening rate (Median of telomere length (initial-final)/Population Doubling),[11],81 bp/PD
same,Telomeres <3 Kbp (percentage of short telomeres),[11],18.48%
same,Median Telomere Length (Table 7A),"Lutein 10 μg/ml, standard culture, week 8",6008 bp
same,"20th Percentile Length (telomere, TAT)",[12],2977 base pairs
same,"Median Length (telomere, TAT)",[12],5997 base pairs
same,Telomere shortening rate (Median of telomere length (initial-final)/Population Doubling),[12],56 bp/PD
same,Telomeres <3 Kbp (percentage of short telomeres),[12],20.21%
same,"Slope (Telomere Shortening Rate) of regression line, telomere length vs Population doubling","Lutein 10 μg/ml, standard culture, weeks 0-8",y = −57.039x + 7250
same,Telomere shortening rate compared to control (H2O2),"Lutein 10, 5 and 1 μg/ml + 10 μM H2O2, after 8 passages",significant difference
same,Effect on telomere length erosion in vitro,"oxidative stress conditions, after 8 passages",significant protective effect
same,"Telomere analysis versus control, other differences","treated groups in standard conditions (LUT10, LUT5, LUT1), 8 weeks",No other significant differences

# — patent publication US20220175693A1, “DIETARY SUPPLEMENT COMPRISING LUTEIN FOR TELOMERE PROTECTION, AND METHOD FOR PRODUCTION THEREOF” (BIOGEN EXTRACTS PRIVATE LIMITED, priority 2019, published 2022)
